# Key:
# Type in all cases: in vivo
# [1] = tested on: redroot pigweed (Amaranthus retroflexus, AMARE); test: Pre-emerge test, greenhouse herbicide activity screening; settings: rating scale 0-100, 14 days after application
# Text: (§1) A standard greenhouse herbicide activity screening system was used to evaluate the herbicidal efficacy and crop safety of these test compounds. Seven broadleaf weed species including redroot pigweed (Amaranthus retroflexus, AMARE, velvetleaf (Abutilon theophrasti, ABUTH), sicklepod (Cassia obtusifolia, CASOB), ivyleaf morningglory (Ipomoea hederacea, IPOHE), lambsquarters (Chenopodium album, CHEAL), common ragweed (Ambrosia artemisizfolia L., AMBEL), and cocklebur (Xanthium strumarium, XANST) were used as test species. Four grass weed species including green foxtail (Setaria viridis, SETVI), barnyardgrass (Echinochloa crus-galli, ECHCG), johnsongrass (Sorghum halepense, SORHA), and large crabgrass (Digitaria sanguinalis, DIGSA) were also used. In addition, three crop species, field corn (Zea mays L., var. Dekalb 535, CORN), soybean (Glycine max L., var. Pella 86, SOY), and is upland rice (Oryza sp., var. Tebonnet, RICE) were included.
# (§2) All plants were grown in 10 cm square plastic pots which were filled with a sandy loam soil mix. For pre-emerge tests, seeds were planted one day prior to application of the test compounds. For post-emerge tests, seeds were planted 8-21 days prior to the test to allow emergence and good foliage development prior to application of the test substances. At the time of the post-emerge application, plants of all species were usually at the 2-3 leaf stage of development.
# All test compounds Were dissolved in acetone and applied to the test units in a volume of 187 l /ha. […] Plants were arranged on a shelf so that the top of the canopy (post-emerge) or top of the soil surface (pre-emerge) was 40-45 cm below the nozzle. Pressurized air was used to force the test solution through the nozzle as it was mechanically advanced (via electrically driven chain drive) over the top of all test plants/pots. This application simulates a typical commercial field herbicide application.
# (§3) In the post-emerge test, a commercial non-ionic surfactant was also included (0.25% v/v) to enhance wetting of the leaf surfaces of target plants. Immediately after application, test units of the pre-emerge applications were watered at the soil surface to incorporate the test materials. Subsequently, these test units were bottom-watered. Post-emerge test units were always bottom-watered.
# (§4) At 14 days after application of the test materials, phytotoxicity ratings were recorded. A rating scale of 0-100 was used as previously described in Research Methods in Weed Science, 2nd edition, B. Truelove, Ed., Southern Weed Science Society, Auburn University, Auburn, Ala. 1977. Briefly, “0” corresponds to no damage and “100” corresponds to complete death of all plants in the test unit. This scale was used both to determine efficacy against weed species and damage to crop species. Herbicide activity data for various compounds of this invention, which are shown by compound No. in Tables 1-8, are shown in Tables 11 and 12.
# [2] = tested on: barnyardgrass (Echinochloa crus-galli, ECHCG); test: as above; settings: rating scale 0-100, 14 days after application
# Text: as §1, §2
# (§5) All test compounds Were dissolved in acetone and applied to the test units in a volume of 187 l /ha. Test materials were applied at rates ranging from 15 g ai/ha to 1000 g ai/ha using a track sprayer equipped with a TJ8001E even flow flat fan spray nozzle. Plants were arranged on a shelf so that the top of the canopy (post-emerge) or top of the soil surface (pre-emerge) was 40-45 cm below the nozzle. Pressurized air was used to force the test solution through the nozzle as it was mechanically advanced (via electrically driven chain drive) over the top of all test plants/pots. This application simulates a typical commercial field herbicide application.
# as §3, §4
# [3] = tested on: green foxtail (Setaria viridis, SETVI); test: as above; settings: rating scale 0-100, 14 days after application
# Text: as §1, §2, §5, §3, §4
# [4] = tested on: ivyleaf morningglory (Ipomoea hederacea, IPOHE); test: as above; settings: rating scale 0-100, 14 days after application
# Text: as §1, §2, §5, §3, §4
# [5] = tested on: lambsquarters (Chenopodium album, CHEAL); test: as above; settings: rating scale 0-100, 14 days after application
# Text: as §1, §2, §5, §3, §4
# [6] = tested on: large crabgrass (Digitaria sanguinalis, DIGSA); test: as above; settings: rating scale 0-100, 14 days after application
# Text: as §1, §2, §5, §3, §4
# [7] = tested on: sicklepod (Cassia obtusifolia, CASOB); test: as above; settings: rating scale 0-100, 14 days after application
# Text: as §1, §2, §5, §3, §4
# [8] = tested on: velvetleaf (Abutilon theophrasti, ABUTH); test: as above; settings: rating scale 0-100, 14 days after application
# Text: as §1, §2, §5, §3, §4
# [9] = tested on: barnyardgrass (Echinochloa crus-galli, ECHCG); test: Post-emerge test, greenhouse herbicide activity screening; settings: rating scale 0-100 (0 no damage, 100 complete death), 14 days after application
# Text: as §1, §2, §5, §3, §4
# [10] = tested on: green foxtail (Setaria viridis, SETVI); test: as above; settings: rating scale 0-100 (0 no damage, 100 complete death), 14 days after application
# Text: as §1, §2, §5, §3, §4
# [11] = tested on: ivyleaf morningglory (Ipomoea hederacea, IPOHE); test: as above; settings: rating scale 0-100 (0 no damage, 100 complete death), 14 days after application
# Text: as §1, §2, §5, §3, §4
# [12] = tested on: lambsquarters (Chenopodium album, CHEAL); test: as above; settings: rating scale 0-100 (0 no damage, 100 complete death), 14 days after application
# Text: as §1, §2, §5, §3, §4
# [13] = tested on: large crabgrass (Digitaria sanguinalis, DIGSA); test: as above; settings: rating scale 0-100 (0 no damage, 100 complete death), 14 days after application
# Text: as §1, §2, §5, §3, §4
# [14] = tested on: redroot pigweed (Amaranthus retroflexus, AMARE); test: as above; settings: rating scale 0-100 (0 no damage, 100 complete death), 14 days after application
# Text: as §1, §2, §5, §3, §4
# [15] = tested on: sicklepod (Cassia obtusifolia, CASOB); test: as above; settings: rating scale 0-100 (0 no damage, 100 complete death), 14 days after application
# Text: as §1, §2, §5, §3, §4
# [16] = tested on: velvetleaf (Abutilon theophrasti, ABUTH); test: as above; settings: rating scale 0-100 (0 no damage, 100 complete death), 14 days after application
# Text: as §1, §2, §5, §3, §4
Structure (SMILES),"Pre-emerge herbicidal activity, phytotoxicity rating AMARE ([1]; 63 g ai/ha)","Pre-emerge herbicidal activity, phytotoxicity rating AMARE ([1]; 250 g ai/ha)","Pre-emerge herbicidal activity, phytotoxicity rating ECHCG ([2]; 63 g ai/ha)","Pre-emerge herbicidal activity, phytotoxicity rating ECHCG ([2]; 250 g ai/ha)","Pre-emerge herbicidal activity, phytotoxicity rating SETVI ([3]; 63 g ai/ha)","Pre-emerge herbicidal activity, phytotoxicity rating SETVI ([3]; 250 g ai/ha)","Pre-emerge herbicidal activity, phytotoxicity rating IPOHE ([4]; 63 g ai/ha)","Pre-emerge herbicidal activity, phytotoxicity rating IPOHE ([4]; 250 g ai/ha)","Pre-emerge herbicidal activity, phytotoxicity rating CHEAL ([5]; 63 g ai/ha)","Pre-emerge herbicidal activity, phytotoxicity rating CHEAL ([5]; 250 g ai/ha)","Pre-emerge herbicidal activity, phytotoxicity rating DIGSA ([6]; 63 g ai/ha)","Pre-emerge herbicidal activity, phytotoxicity rating DIGSA ([6]; 250 g ai/ha)","Pre-emerge herbicidal activity, phytotoxicity rating CASOB ([7]; 63 g ai/ha)","Pre-emerge herbicidal activity, phytotoxicity rating CASOB ([7]; 250 g ai/ha)","Pre-emerge herbicidal activity, phytotoxicity rating ABUTH ([8]; 63 g ai/ha)","Pre-emerge herbicidal activity, phytotoxicity rating ABUTH ([8]; 250 g ai/ha)","Post-emerge Herbicidal Activity, phytotoxicity rating ECHCG ([9]; Rate 63 g ai/ha)","Post-emerge Herbicidal Activity, phytotoxicity rating ECHCG ([9]; Rate 250 g ai/ha)","Post-emerge Herbicidal Activity, phytotoxicity rating SETVI ([10]; Rate 63 g ai/ha)","Post-emerge Herbicidal Activity, phytotoxicity rating SETVI ([10]; Rate 250 g ai/ha)",other results
"CCOC(=O)C(Cl)Cc1c(OC)c(Cl)cc(F)c1-n1c(=O)cc(C(F)(F)F)n(C)c1=O (single isomer, unassigned) [Compound 14-4, 3-{4-chloro-2-[2-chloro-2-(ethoxycarbonyl)ethyl]-6-fluoro-3-methoxyphenyl}-1-methyl-6-trifluoromethyl-2,4(1H, 3H)-pyrimidinedione]",90,100,0,0,10,40,0,70,60,100,20,95,20,20,50,80,85,99,30,65,"Post-emerge Herbicidal Activity, phytotoxicity rating IPOHE ([11]; Rate 63 g ai/ha): 50; Post-emerge Herbicidal Activity, phytotoxicity rating IPOHE ([11]; Rate 250 g ai/ha): 60; Post-emerge Herbicidal Activity, phytotoxicity rating CHEAL ([12]; Rate 63 g ai/ha): 100; Post-emerge Herbicidal Activity, phytotoxicity rating CHEAL ([12]; Rate 250 g ai/ha): 100; Post-emerge Herbicidal Activity, phytotoxicity rating DIGSA ([13]; Rate 63 g ai/ha): 75; Post-emerge Herbicidal Activity, phytotoxicity rating DIGSA ([13]; Rate 250 g ai/ha): 95; Post-emerge Herbicidal Activity, phytotoxicity rating AMARE ([14]; Rate 63 g ai/ha): 100; Post-emerge Herbicidal Activity, phytotoxicity rating AMARE ([14]; Rate 250 g ai/ha): 100; Post-emerge Herbicidal Activity, phytotoxicity rating CASOB ([15]; Rate 63 g ai/ha): 50; Post-emerge Herbicidal Activity, phytotoxicity rating CASOB ([15]; Rate 250 g ai/ha): 100; Post-emerge Herbicidal Activity, phytotoxicity rating ABUTH ([16]; Rate 63 g ai/ha): 80; Post-emerge Herbicidal Activity, phytotoxicity rating ABUTH ([16]; Rate 250 g ai/ha): 100"
"CCOC(=O)C(Cl)Cc1c(OC)c(Cl)cc(F)c1-n1c(=O)cc(C(F)(F)F)n(C)c1=O (single isomer, unassigned) [Compound 14-5, 3-{4-chloro-2-[2-chloro-2-(ethoxycarbonyl)ethyl]-6-fluoro-3-methoxyphenyl}-1-methyl-6-trifluoromethyl-2,4(1H, 3H)-pyrimidinedione]",70,100,0,40,10,60,20,30,70,100,20,95,0,10,100,100,40,100,60,95,"Post-emerge Herbicidal Activity, phytotoxicity rating IPOHE ([11]; Rate 63 g ai/ha): 30; Post-emerge Herbicidal Activity, phytotoxicity rating IPOHE ([11]; Rate 250 g ai/ha): 100; Post-emerge Herbicidal Activity, phytotoxicity rating CHEAL ([12]; Rate 63 g ai/ha): 100; Post-emerge Herbicidal Activity, phytotoxicity rating CHEAL ([12]; Rate 250 g ai/ha): 100; Post-emerge Herbicidal Activity, phytotoxicity rating DIGSA ([13]; Rate 63 g ai/ha): 95; Post-emerge Herbicidal Activity, phytotoxicity rating DIGSA ([13]; Rate 250 g ai/ha): 100; Post-emerge Herbicidal Activity, phytotoxicity rating AMARE ([14]; Rate 63 g ai/ha): 100; Post-emerge Herbicidal Activity, phytotoxicity rating AMARE ([14]; Rate 250 g ai/ha): 100; Post-emerge Herbicidal Activity, phytotoxicity rating CASOB ([15]; Rate 63 g ai/ha): 10; Post-emerge Herbicidal Activity, phytotoxicity rating CASOB ([15]; Rate 250 g ai/ha): 50; Post-emerge Herbicidal Activity, phytotoxicity rating ABUTH ([16]; Rate 63 g ai/ha): 100; Post-emerge Herbicidal Activity, phytotoxicity rating ABUTH ([16]; Rate 250 g ai/ha): 100"

# Reference: US6355799B1, “Substituted benzene compounds, process for their preparation, and herbicidal and defoliant compositions containing them” (ISK Americas Incorporated, priority 1997, dated 2002)
